Measured values from ChEMBL document CHEMBL5634182, “Antifungal Pseuboyenes A-J, Bergamotene-Derived Sesquiterpenoids from a Cold-Seep-Derived Pseudallescheria boydii” (J Nat Prod, 2024).

What was measured:
[1] = system: Escherichia coli; assay: Antibacterial activity against Escherichia coli EMBLC-1 assessed as reduction in microbial growth by broth microdilution method; assay type: functional
[2] = system: Edwardsiella tarda; assay: Antibacterial activity against Edwardsiella tarda QDIO-2 assessed as reduction in microbial growth by broth microdilution method; assay type: functional
[3] = system: Micrococcus luteus; assay: Antibacterial activity against Micrococcus luteus QDIO-3 assessed as reduction in microbial growth by broth microdilution method; assay type: functional
[4] = system: Pseudomonas aeruginosa; assay: Antibacterial activity against Pseudomonas aeruginosa QDIO-4 assessed as reduction in microbial growth by broth microdilution method; assay type: functional
[5] = system: Vibrio anguillarum; assay: Antibacterial activity against Vibrio anguillarum QDIO-6 assessed as reduction in microbial growth by broth microdilution method; assay type: functional
[6] = system: Vibrio harveyi; assay: Antibacterial activity against Vibrio harveyi QDIO-7 assessed as reduction in microbial growth by broth microdilution method; assay type: functional
[7] = system: Vibrio vulnificus; assay: Antibacterial activity against Vibrio vulnificus QDIO-10 assessed as reduction in microbial growth by broth microdilution method; assay type: functional
[8] = system: MKN-45; assay: Cytotoxicity against human MKN-45 cells assessed as reduction in cell viability at 20 uM; assay type: functional, cell-based
[9] = system: A549; assay: Cytotoxicity against human A549 cells assessed as reduction in cell viability at 20 uM; assay type: functional, cell-based
[10] = system: HCT-116; assay: Cytotoxicity against human HCT-116 cells assessed as reduction in cell viability at 20 uM; assay type: functional, cell-based
[11] = system: HeLa; assay: Cytotoxicity against human HeLa cells assessed as reduction in cell viability at 20 uM; assay type: functional, cell-based
[12] = system: K562; assay: Cytotoxicity against human K562 cells assessed as reduction in cell viability at 20 uM; assay type: functional, cell-based
[13] = system: 786-0; assay: Cytotoxicity against human 786-0 cells assessed as reduction in cell viability at 20 uM; assay type: functional, cell-based
[14] = system: TE-1; assay: Cytotoxicity against human TE-1 cells assessed as reduction in cell viability at 20 uM; assay type: functional, cell-based
[15] = system: 5637; assay: Cytotoxicity against human 5637 cells assessed as reduction in cell viability at 20 uM; assay type: functional, cell-based
[16] = system: GBC-SD; assay: Cytotoxicity against human GBC-SD cells assessed as reduction in cell viability at 20 uM; assay type: functional, cell-based
[17] = system: L02; assay: Cytotoxicity against human L02 cells assessed as reduction in cell viability at 20 uM; assay type: functional, cell-based
[18] = system: MCF7; assay: Cytotoxicity against human MCF7 cells assessed as reduction in cell viability at 20 uM; assay type: functional, cell-based
[19] = system: HepG2; assay: Cytotoxicity against human HepG2 cells assessed as reduction in cell viability at 20 uM; assay type: functional, cell-based
[20] = system: SF-126; assay: Cytotoxicity against human SF-126 cells assessed as reduction in cell viability at 20 uM; assay type: functional, cell-based
[21] = system: DU-145; assay: Cytotoxicity against human DU-145 cells assessed as reduction in cell viability at 20 uM; assay type: functional, cell-based
[22] = system: CAL-62; assay: Cytotoxicity against human CAL-62 cells assessed as reduction in cell viability at 20 uM; assay type: functional, cell-based
[23] = system: PaTu 8988t; assay: Cytotoxicity against human PaTu 8988t cells assessed as reduction in cell viability at 20 uM; assay type: functional, cell-based
[24] = system: HOS; assay: Cytotoxicity against human HOS cells assessed as reduction in cell viability at 20 uM; assay type: functional, cell-based
[25] = system: A-375; assay: Cytotoxicity against human A-375 cells assessed as reduction in cell viability at 20 uM; assay type: functional, cell-based
[26] = system: A673; assay: Cytotoxicity against human A673 cells assessed as reduction in cell viability at 20 uM; assay type: functional, cell-based
[27] = system: HEK-293T; assay: Cytotoxicity against human HEK293T cells assessed as reduction in cell viability at 20 uM; assay type: toxicity, cell-based
[28] = system: Alternaria brassicae; assay: Antifungal activity against Alternaria brassicae QDAU-16 assessed as reduction in microbial growth by broth microdilution method; assay type: functional
[29] = system: Ceratobasidium cornigerum; assay: Antifungal activity against Ceratobasidium cornigerum QDAU-6 assessed as reduction in microbial growth by broth microdilution method; assay type: functional
[30] = system: Coniella diplodiella; assay: Antifungal activity against Coniothyrium diplodiella QDAU-7 assessed as reduction in microbial growth by broth microdilution method; assay type: functional
[31] = system: Colletotrichum gloeosporioides; assay: Antifungal activity against Colletotrichum gloeosporioides QDAU-2 assessed as reduction in microbial growth by broth microdilution method; assay type: functional
[32] = system: Colletotrichum gloeosporioides; assay: Antifungal activity against Colletotrichum gloeosporioides QDAU-17 assessed as reduction in microbial growth by broth microdilution method; assay type: functional
[33] = system: Curvularia spicifera; assay: Antifungal activity against Curvularia spicifera QDAU-18 assessed as reduction in microbial growth by broth microdilution method; assay type: functional
[34] = system: Fusarium graminearum; assay: Antifungal activity against Fusarium graminearum QDAU-4 assessed as reduction in microbial growth by broth microdilution method; assay type: functional
[35] = system: Fusarium oxysporum; assay: Antifungal activity against Fusarium oxysporum QDAU-8 assessed as reduction in microbial growth by broth microdilution method; assay type: functional
[36] = system: Fusarium proliferatum; assay: Antifungal activity against Fusarium proliferatum QDAU-19 assessed as reduction in microbial growth by broth microdilution method; assay type: functional
[37] = system: Penicillium digitatum; assay: Antifungal activity against Penicillium digitatum QDAU-14 assessed as reduction in microbial growth by broth microdilution method; assay type: functional
[38] = system: Botryosphaeria berengeriana; assay: Antifungal activity against Physalospora piricola QDAU-15 assessed as reduction in microbial growth by broth microdilution method; assay type: functional
[39] = system: Fusarium proliferatum; assay: Antifungal activity against Fusarium proliferatum assessed as reduction in microbial growth measured after 72 hrs; assay type: functional, organism-based

`C=C1CC[C@H](O)C[C@@H]1[C@H](C)C(=O)[C@H](O)C=C(C)C` was tested, and the MIC [1] was 8 µg/mL, the MIC [2] was > 64 µg/mL and the MIC [3] was > 64 µg/mL. For the same compound, the MIC [4] was > 64 µg/mL, the MIC [5] was 32 µg/mL and the MIC [6] was > 64 µg/mL. The MIC [7] was > 64 µg/mL, the Activity [8] was “Not toxic” and the Activity [9] was “Not toxic”. For the same compound, the Activity [10] was “Not toxic”, the Activity [11] was “Not toxic” and the Activity [12] was “Not toxic”. The Activity [13] was “Not toxic”, the Activity [14] was “Not toxic” and the Activity [15] was “Not toxic”. For the same compound, the Activity [16] was “Not toxic”, the Activity [17] was “Not toxic” and the Activity [18] was “Not toxic”. For the same compound, the Activity [19] was “Not toxic”, the Activity [20] was “Not toxic” and the Activity [21] was “Not toxic”. For the same compound, the Activity [22] was “Not toxic”, the Activity [23] was “Not toxic” and the Activity [24] was “Not toxic”. For the same compound, the Activity [25] was “Not toxic”, the Activity [26] was “Not toxic” and the Activity [27] was “Non-Toxic”.
For `C=C1CC[C@@]2(O)C[C@@H]1[C@]2(C)[C@@H](/C=C/C(C)(C)O)OC(C)=O`, the MIC [28] was 0.5 µg/mL, the MIC [29] was 4 µg/mL and the MIC [30] was 0.5 µg/mL. It also gave an MIC [31] of 4 µg/mL, an MIC [32] of 8 µg/mL and an MIC [33] of 2 µg/mL. For the same compound, the MIC [34] was 4 µg/mL, the MIC [35] was 2 µg/mL and the MIC [36] was 0.5 µg/mL. It also gave an MIC [37] of 4 µg/mL, an MIC [38] of 8 µg/mL and an EC50 [39] of 1 µg/mL. For the same compound, the Activity ([39]; dose <= 100.0 µg/ml) was “Dose-Dependent Effect”, the Activity [8] was “Not toxic” and the Activity [9] was “Not toxic”. For the same compound, the Activity [10] was “Not toxic”, the Activity [11] was “Not toxic” and the Activity [12] was “Not toxic”. For the same compound, the Activity [13] was “Not toxic”, the Activity [14] was “Not toxic” and the Activity [15] was “Not toxic”. The Activity [16] was “Not toxic”, the Activity [17] was “Not toxic” and the Activity [18] was “Not toxic”. The Activity [19] was “Not toxic”, the Activity [20] was “Not toxic” and the Activity [21] was “Not toxic”. For the same compound, the Activity [22] was “Not toxic”, the Activity [23] was “Not toxic” and the Activity [24] was “Not toxic”. The Activity [25] was “Not toxic”, the Activity [26] was “Not toxic” and the Activity [27] was “Non-Toxic”.
